Data: ChEMBL document CHEMBL1151097, “Phenyl-glycinol based NK1 receptor antagonists towards the minimum pharmacophore” (Bioorg Med Chem Lett, 1995)

Columns and labels:
Substance-P receptor = Substance-P receptor (Homo sapiens, UniProt P25103); assay: Binding affinity to human Tachykinin receptor 1
[1] = molecular target: Voltage-gated L-type calcium channel (Homo sapiens, UniProt Q13936+Q13698+Q01668+O60840); assay: Inhibition of binding to L-type [Ca2+] channel; type: protein assay
[2] = pKa value was determined; type: physicochemical

Sequence of Substance-P receptor (P25103 whole entry): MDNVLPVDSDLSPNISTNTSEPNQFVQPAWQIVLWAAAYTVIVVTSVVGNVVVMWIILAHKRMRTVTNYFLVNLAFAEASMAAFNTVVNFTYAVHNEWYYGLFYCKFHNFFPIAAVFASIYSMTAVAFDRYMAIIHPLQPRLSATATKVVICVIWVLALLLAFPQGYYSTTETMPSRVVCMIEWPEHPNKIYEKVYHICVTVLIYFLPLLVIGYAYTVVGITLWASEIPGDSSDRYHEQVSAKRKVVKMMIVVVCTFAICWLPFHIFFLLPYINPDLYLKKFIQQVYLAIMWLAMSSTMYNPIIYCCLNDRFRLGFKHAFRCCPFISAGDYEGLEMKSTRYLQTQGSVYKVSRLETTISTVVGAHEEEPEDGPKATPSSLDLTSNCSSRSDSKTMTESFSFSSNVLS

Row | Structure (SMILES) | IC50 (Substance-P receptor) | IC50 [1] | pKa [2]
1 | Cc1cc(COC[C@@H](N)c2ccccc2)cc(C(C)(C)C)c1 | 13.7 nM |  | 
2 | Cc1cc(Br)cc(COC[C@@H](N)c2ccccc2)c1 | 20 nM |  | 
3 | N[C@H](COCc1cc(Cl)cc(Cl)c1)c1ccccc1 | 49 nM |  | 
4 | CC(N)(COCc1cc(C(F)(F)F)cc(C(F)(F)F)c1)c1ccccc1 (stereo not given) | 30 nM |  | 
5 | N[C@H](COCc1cc(C(F)(F)F)cc(C(F)(F)F)c1)c1ccccc1 | 13 nM | 0.58 µM | 7.93
6 | COc1cc(C)cc(COC[C@@H](N)c2ccccc2)c1 | 135 nM |  | 
7 | CC(OCc1cc(C(F)(F)F)cc(C(F)(F)F)c1)C(N)c1ccccc1 (single isomer, unassigned; diastereomer A) | 95 nM |  | 

The next compounds have a lower IC50 (Substance-P receptor) than those just listed; values first:

Row | IC50 (Substance-P receptor) | IC50 [1] | pKa [2] | Structure (SMILES)
8 | 5.8 nM | > 10 µM |  | CN(CC(N)=O)[C@H](COCc1cc(C(F)(F)F)cc(C(F)(F)F)c1)c1ccccc1
9 | 8 nM | 2.3 µM |  | NC(=O)CN[C@H](COCc1cc(C(F)(F)F)cc(C(F)(F)F)c1)c1ccccc1
10 | 4.3 nM |  |  | CC(OCC(N)c1ccccc1)c1cc(C(F)(F)F)cc(C(F)(F)F)c1 (stereo not given)
11 | 7 nM |  |  | CC(OCc1cc(C(F)(F)F)cc(C(F)(F)F)c1)C(N)c1ccccc1 (single isomer, unassigned; diastereomer B)
